According to the NIST ThermoML archive (doi:10.1016/j.jct.2014.01.030):

Assays:
[1] = Liquid; for speed of sound: Sing-around technique in a fixed-path interferometer; for mass density: Vibrating tube method; for viscosity: Capillary tube (Ostwald / Ubbelohde) method
[2] = refractive index (Na D-line) (dimensionless); conditions: 101.33 kPa, Liquid, Standard Abbe refractometry
[3] = molar heat capacity at constant pressure; conditions: 101.33 kPa, Liquid, Small sample (50 mg) DSC
[4] = xn = mol fraction of the nth substance listed; conditions: 101 kPa, Liquid, x1 = 1; for speed of sound: Sing-around technique in a fixed-path interferometer; for mass density: Vibrating tube method

CCn1cc[n+](C)c1.COS(=O)(=O)[O-] [1-ethyl-3-methylimidazolium methylsulfate]
[1], 101.33 kPa
Conditions	mass density [kg/m3]	speed of sound [m/s]	viscosity [mPa·s]
288.15 K	1287.57	1781	–
293.15 K	1284.26	1768	85.22
298.15 K	1280.81	1756	67.06
303.15 K	1277.28	1744	54.39
308.15 K	1273.97	1732	44.68
313.15 K	1270.57	1720	37.1
318.15 K	1267.18	1709	31.27
323.15 K	1263.81	1697	26.81
328.15 K	1260.45	1686	22.74
333.15 K	1257.09	1675	19.71
338.15 K	1253.75	1663	17.25
343.15 K	1250.42	1652	15.16

Conditions	molar heat capacity at constant pressure, [3] [J/K/mol]	refractive index, [2]
288.15 K	331.48	–
293.15 K	–	1.48252
298.15 K	340.77	1.48125
303.15 K	–	1.47998
308.15 K	346.99	1.47868
313.15 K	–	1.4774
318.15 K	–	1.47612
323.15 K	–	1.4748
328.15 K	–	1.4735
333.15 K	–	1.47218
338.15 K	–	1.47086
343.15 K	–	1.46954

CCC(C)O (configuration not stated) [butan-2-ol]
[1], 101 kPa
Conditions	mass density [kg/m3]	speed of sound [m/s]
288.15 K	810.96	1249
298.15 K	802.82	1213
308.15 K	794.34	1177

Conditions	refractive index
[2], 298.15 K	1.39487

CCC(C)O (configuration not stated) [butan-2-ol] + CCn1cc[n+](C)c1.COS(=O)(=O)[O-]
[4]
Conditions	mass density [kg/m3]	speed of sound [m/s]
288.15 K	810.96	1249
298.15 K	802.82	1213
308.15 K	794.34	1177

CCO [ethanol]
[1], 101 kPa
Conditions	mass density [kg/m3]	speed of sound [m/s]
288.15 K	794.04	1179
298.15 K	785.52	1145
308.15 K	776.87	1111

Conditions	refractive index
[2], 298.15 K	1.35907

CCO [ethanol] + CCn1cc[n+](C)c1.COS(=O)(=O)[O-]
[4]
Conditions	mass density [kg/m3]	speed of sound [m/s]
288.15 K	794.04	1179
298.15 K	785.52	1145
308.15 K	776.87	1111

CO [methanol]
[1], 101 kPa
Conditions	mass density [kg/m3]	speed of sound [m/s]
288.15 K	796.46	1137
298.15 K	787.1	1104
308.15 K	777.64	1071

Conditions	refractive index
[2], 298.15 K	1.32649

CO [methanol] + CCn1cc[n+](C)c1.COS(=O)(=O)[O-]
[4]
Conditions	mass density [kg/m3]	speed of sound [m/s]
288.15 K	796.46	1137
298.15 K	787.1	1104
308.15 K	777.64	1071

CCCCCO [pentan-1-ol]
[1], 101 kPa
Conditions	mass density [kg/m3]	speed of sound [m/s]
288.15 K	818.25	1310
298.15 K	810.99	1276
308.15 K	803.61	1243

Conditions	refractive index
[2], 298.15 K	1.40774

CCCCCO [pentan-1-ol] + CCn1cc[n+](C)c1.COS(=O)(=O)[O-]
[4]
Conditions	mass density [kg/m3]	speed of sound [m/s]
288.15 K	818.25	1310
298.15 K	810.99	1276
308.15 K	803.61	1243

CCCO [propan-1-ol]
[1], 101 kPa
Conditions	mass density [kg/m3]	speed of sound [m/s]
288.15 K	808.48	1243
298.15 K	800.5	1208
308.15 K	792.38	1174

Conditions	refractive index
[2], 298.15 K	1.38286

CCCO [propan-1-ol] + CCn1cc[n+](C)c1.COS(=O)(=O)[O-]
[4]
Conditions	mass density [kg/m3]	speed of sound [m/s]
288.15 K	808.48	1243
298.15 K	800.5	1208
308.15 K	792.38	1174

CC(C)O [propan-2-ol]
[1], 101 kPa
Conditions	mass density [kg/m3]	speed of sound [m/s]
288.15 K	790.01	1177
298.15 K	781.67	1141
308.15 K	773.03	1106

Conditions	refractive index
[2], 298.15 K	1.37523

CC(C)O [propan-2-ol] + CCn1cc[n+](C)c1.COS(=O)(=O)[O-]
[4]
Conditions	mass density [kg/m3]	speed of sound [m/s]
288.15 K	790.01	1177
298.15 K	781.67	1141
308.15 K	773.03	1106
